Experimental findings from US5589510A, “Method for inhibiting retroviral infection by administering a naphthalenesulfonic acid compound” (priority 1995, dated 1996) are described below.

By LD50 is commonly meant the dose expected to kill half of the subjects tested. High values mean lower toxicity, low ones greater toxicity. Broadly, the inhibition is how much of the control response was suppressed.

One data set is described as follows: LD50, intravenous, mice. The format is in vivo. As to conditions: mouse, in vivo, female mice, mortalities within 1 week. How it is done: The test material was administered intravenously to 5 female mice in five increasing doses. Mortalities were recorded within 1 week, and the LD50 was determined with the aid of statistical calculations.
The subject of data set [1] is TA98, TA1535, TA1537, TA1538, TA100 and W2P2uvr. Briefly: Ames Test (in the presence of S9). The format is cell-based, Salmonella typhimurium. As to conditions: for Ames Test, specific mutagenic activity: the higher the value, the higher the mutagenicity. The text has this:
Six Salmonella typhimuriumstrai strains, TA98, TA1535, TA1537, TA1538, TA100 and W2P2uvr were used in this experiment.

Another data set concerns HIV-1 RF. Briefly: Antiviral assay, Experimental Protocol I (compound added after infection). The format is cell-based. As to conditions: Human immunodeficiency virus 1, 240 h, p24 ELISA, read-out: % Inhibition (after day 10); for inhibition at 1.25 µg/mL: 1.25 μg/ml; for inhibition at 2.5 µg/mL: 2.5 μg/ml; for inhibition at 5 µg/mL: 5 μg/ml; for inhibition at 0.6 µg/mL: 0.6 μg/ml. How it is done:
HIV-1 infectivity studies were conducted in CEM, H9, MT2 cells and peripheral blood mononuclear cells (PBMC). CEM, H9 and MT2 were grown in RPMI1640 medium, 10% heat-inactivated fetal bovine serum (FBS). PBMCs were stimulated with 4 μg/ml PHA for 48 hours in RPMI1640, 10% FBS before HIV-1 infection. After HIV-1 infection, PBMCs were maintained in RPMI 1640, 10% FBS and 10 10 units/ml IL-2. The major HIV-1 isolates used were MN, IIIB, SF2, AZT-sensitive A018 and AZT-resistant A018 provided by NIH AIDS research and reference reagent program. Two major antiviral assays were developed to determine the antiviral activities of the compounds of this invention (as inhibitors).
I. The cells were infected with HIV-1 RF or IIIB at an infectivity multiplicity (moi) of 0.001 in the absence of a compound of this invention for one hour. HIV-1 infected cells were washed once with PBS, resuspended in RPMI1640, 10% FBS medium and distributed in 24-well culture dishes (5×10^5 cells per well) in the presence of a compound of this invention as inhibitor. […]
In general terms: In an ELISA, binding on a coated surface is turned into a signal by an enzyme label.

Where two headings read alike, the source gives them in different places.

In the data set “LD50, intravenous, mice”, `COc1cc(N=Nc2c(S(=O)(=O)O)cc3cc(S(=O)(=O)O)cc(NC(=O)c4ccccc4OC)c3c2O)c(OC)cc1N=Nc1c(S(=O)(=O)O)cc2cc(S(=O)(=O)O)cc(NC(=O)c3ccccc3)c2c1O` [Compound 25] had an LD50 at 168 h of 160 mg/kg. In data set [1], the “Ames Test result” value is listed as “Negative”.

Take `COc1cc(N=Nc2c(O)ccc3ccc(S(=O)(=O)O)cc23)c(OC)cc1N=Nc1c(S(=O)(=O)O)cc2cc(S(=O)(=O)O)cc(NC(=O)COc3ccccc3)c2c1O` [Compound 41]: in data set [1], the “Ames Test result” value is reported as “Negative”.

With `COc1cc(N=Nc2c(S(=O)(=O)O)cc3cc(S(=O)(=O)O)cc(NC(=O)c4cccc(Cl)c4Cl)c3c2O)c(OC)cc1N=Nc1c(S(=O)(=O)O)cc2cc(S(=O)(=O)O)cc(NC(=O)Cc3ccccc3)c2c1O` [Compound 2], in the data set with HIV-1 RF (10% FCS), the inhibition at 1.25 µg/mL turned out to be 60%, the inhibition at 2.5 µg/mL turned out to be 73% and the inhibition at 5 µg/mL was found to be 98%. In “LD50, intravenous, mice”, this compound yielded an LD50 at 168 h of 150 mg/kg. The “Ames Test result” value in data set [1] is on record as “Negative”.

`O=C(Nc1cc(S(=O)(=O)O)cc2cc(S(=O)(=O)O)c(N=Nc3ccc(N=Nc4c(S(=O)(=O)O)cc5cc(S(=O)(=O)O)cc(NC(=O)c6cccc(Cl)c6Cl)c5c4O)c(Cl)c3)c(O)c12)c1ccc(Cl)cc1Cl` [Compound 30]: the “Ames Test result” value in data set [1] was “Negative”.

On to `O=C(Nc1cc(S(=O)(=O)O)cc2cc(S(=O)(=O)O)c(N=Nc3ccc(N=Nc4c(O)ccc5ccc(S(=O)(=O)O)cc45)cc3Cl)c(O)c12)c1ccccc1` [Compound 45], for which, in the data set with HIV-1 RF (10% FCS), the inhibition at 1.25 µg/mL was found to be 92%, the inhibition at 2.5 µg/mL came out at 99% and the inhibition at 5 µg/mL was determined as 99%.

In the data set “LD50, intravenous, mice”, `COc1cc(N=Nc2c(S(=O)(=O)O)cc3cc(S(=O)(=O)O)cc(NC(=O)c4ccc(Cl)cc4Cl)c3c2O)c(OC)cc1N=Nc1c(S(=O)(=O)O)cc2cc(S(=O)(=O)O)cc(NC(=O)Cc3cccc4ccccc34)c2c1O` [Compound 20] registered an LD50 at 168 h of 150 mg/kg. Moreover, in data set [1], the “Ames Test result” value is given as “Positive” and the “Ames Test, specific mutagenic activity” value came to 0.08 colony no/μg.

For the compound `COc1cc(N=Nc2c(S(=O)(=O)O)cc3cc(S(=O)(=O)O)cc(NC(=O)c4cccc([N+](=O)[O-])c4)c3c2O)c(OC)cc1N=Nc1c(S(=O)(=O)O)cc2cc(S(=O)(=O)O)cc(NC(=O)c3ccccc3)c2c1O` [Compound 22], the LD50 at 168 h in “LD50, intravenous, mice” is 140 mg/kg. Moreover, in data set [1], the “Ames Test result” value is on record as “Positive” and the “Ames Test, specific mutagenic activity” value turned out to be 0.4 colony no/μg.

As to `COc1cc(N=Nc2c(O)ccc3ccc(S(=O)(=O)O)cc23)c(OC)cc1N=Nc1c(S(=O)(=O)O)cc2cc(S(=O)(=O)O)cc(NC(=O)c3cccnc3)c2c1O` [Compound 40], the “Ames Test result” value in data set [1] was “Negative”.

Consider `Cc1cc(N=Nc2c(S(=O)(=O)O)cc3cc(S(=O)(=O)O)cc(NC(=O)c4cccc(Cl)c4Cl)c3c2O)c(C)cc1N=Nc1c(S(=O)(=O)O)cc2cc(S(=O)(=O)O)cc(NC(=O)c3ccc(Cl)cc3Cl)c2c1O` [Compound 31], for which, in the data set on HIV-1 RF (10% FCS), the inhibition at 1.25 µg/mL worked out at 0%, the inhibition at 2.5 µg/mL was 88% and the inhibition at 5 µg/mL amounted to 100%. The “Ames Test result” value in data set [1] is recorded as “Negative”.

In the case of `COc1cc(N=Nc2c(O)ccc3ccc(S(=O)(=O)O)cc23)c(OC)cc1N=Nc1c(S(=O)(=O)O)cc2cc(S(=O)(=O)O)cc(NC(=O)c3ccc(Cl)cc3Cl)c2c1O` [Compound 34], in data set [1], the “Ames Test result” value is reported as “Negative”.

Consider `COc1cc(N=Nc2c(S(=O)(=O)O)cc3cc(S(=O)(=O)O)cc(NC(=O)c4cccc(Cl)c4Cl)c3c2O)c(OC)cc1N=Nc1c(S(=O)(=O)O)cc2cc(S(=O)(=O)O)cc(NC(=O)c3cccc(Cl)c3Cl)c2c1O` [Compound 8], for which, in the data set with HIV-1 RF (10% FCS), the inhibition at 0.6 µg/mL amounted to 87%, the inhibition at 1.25 µg/mL turned out to be 99%, the inhibition at 2.5 µg/mL was 99% and the inhibition at 5 µg/mL is 99%. Besides, in the data set on HIV-1 RF (50% Human Serum), the inhibition at 1.25 µg/mL came to 0%, the inhibition at 2.5 µg/mL was 0% and the inhibition at 5 µg/mL was found to be 95%. In “LD50, intravenous, mice”, this compound came in with an LD50 at 168 h of 160 mg/kg. Also, in data set [1], the “Ames Test result” value was “Negative”.

Consider `COc1cc(N=Nc2c(S(=O)(=O)O)cc3cc(S(=O)(=O)O)cc(NC(=O)c4ccc(C)cc4)c3c2O)c(OC)cc1N=Nc1c(S(=O)(=O)O)cc2cc(S(=O)(=O)O)cc(NC(=O)c3ccccc3)c2c1O` [Compound 23], for which, in the data set “LD50, intravenous, mice”, the LD50 at 168 h was 130 mg/kg. In addition, in data set [1], the “Ames Test result” value is reported as “Negative”.

As for `COc1cc(N=Nc2c(S(=O)(=O)O)cc3cc(S(=O)(=O)O)cc(NC(=O)c4ccc(C#N)cc4)c3c2O)c(OC)cc1N=Nc1c(S(=O)(=O)O)cc2cc(S(=O)(=O)O)cc(NC(=O)c3ccccc3)c2c1O` [Compound 26], the LD50 at 168 h in “LD50, intravenous, mice” is 150 mg/kg. Further, the “Ames Test result” value in data set [1] was “Negative”.

With `O=C(Nc1cc(S(=O)(=O)O)cc2cc(S(=O)(=O)O)c(N=Nc3ccc(N=Nc4c(S(=O)(=O)O)cc5cc(S(=O)(=O)O)cc(NC(=O)c6cccc(Cl)c6Cl)c5c4O)cc3)c(O)c12)c1ccc(Cl)cc1Cl` [Compound 29], the “Ames Test result” value in data set [1] is listed as “Negative”.

For `COc1cc(N=Nc2c(S(=O)(=O)O)cc3cc(S(=O)(=O)O)cc(NC(=O)c4cccc(Cl)c4Cl)c3c2O)c(OC)cc1N=Nc1c(S(=O)(=O)O)cc2cc(S(=O)(=O)O)cc(NC(=O)c3cc(Cl)ccc3Cl)c2c1O` [Compound 9], in the data set with HIV-1 RF (10% FCS), the inhibition at 0.6 µg/mL was 63%, the inhibition at 1.25 µg/mL is 99%, the inhibition at 2.5 µg/mL is 99% and the inhibition at 5 µg/mL amounted to 100%. For the same compound, in the data set with HIV-1 RF (50% Human Serum), the inhibition at 0.6 µg/mL is 0%, the inhibition at 1.25 µg/mL came to 0%, the inhibition at 2.5 µg/mL came out at 16% and the inhibition at 5 µg/mL stood at 90%. In addition, the LD50 at 168 h in the data set “LD50, intravenous, mice” worked out at 150 mg/kg. Besides, in data set [1], the “Ames Test result” value is given as “Negative”.

Take `COc1cc(N=Nc2c(O)ccc3ccc(S(=O)(=O)O)cc23)c(OC)cc1N=Nc1c(S(=O)(=O)O)cc2cc(S(=O)(=O)O)cc(NC(=O)c3ccc4ccccc4c3)c2c1O` [Compound 39]: in data set [1], the “Ames Test result” value is listed as “Negative”.

As for `COc1cc(N=Nc2c(O)ccc3ccc(S(=O)(=O)O)cc23)c(OC)cc1N=Nc1c(S(=O)(=O)O)cc2cc(S(=O)(=O)O)cc(NC(=O)Cc3cccc4ccccc34)c2c1O` [Compound 42], in the data set on HIV-1 RF (10% FCS), the inhibition at 1.25 µg/mL worked out at 28%, the inhibition at 2.5 µg/mL came to 99% and the inhibition at 5 µg/mL was 99%. Moreover, the “Ames Test result” value in data set [1] was “Negative”.

In the case of `COc1cc(N=Nc2c(O)ccc3ccc(S(=O)(=O)O)cc23)c(OC)cc1N=Nc1c(S(=O)(=O)O)cc2cc(S(=O)(=O)O)cc(NC(=O)c3ccc(C#N)cc3)c2c1O` [Compound 37], the “Ames Test result” value in data set [1] is “Negative”.

With `COc1cc(N=Nc2c(S(=O)(=O)O)cc3cc(S(=O)(=O)O)cc(NC(=O)c4cccc5ccccc45)c3c2O)c(OC)cc1N=Nc1c(S(=O)(=O)O)cc2cc(S(=O)(=O)O)cc(NC(=O)c3ccc(C(F)(F)F)cc3)c2c1O` [Compound 19], the LD50 at 168 h in the data set “LD50, intravenous, mice” came out at 140 mg/kg. Moreover, the “Ames Test result” value in data set [1] is listed as “Negative”.

Regarding `COc1cc(N=Nc2c(S(=O)(=O)O)cc3cc(S(=O)(=O)O)cc(NC(=O)c4ccccc4)c3c2O)c(OC)cc1N=Nc1c(S(=O)(=O)O)cc2cc(S(=O)(=O)O)cc(NC(=O)Nc3ccc(F)cc3)c2c1O` [Compound 24], in “LD50, intravenous, mice”, the LD50 at 168 h came out at 140 mg/kg. The “Ames Test result” value in data set [1] is on record as “Negative”.

Regarding `CCC(C)(C)c1ccc(OCC(=O)Nc2cc(S(=O)(=O)O)cc3cc(S(=O)(=O)O)c(N=Nc4cc(OC)c(N=Nc5c(O)ccc6ccc(S(=O)(=O)O)cc56)cc4OC)c(O)c23)c(C(C)(C)CC)c1` [Compound 43], in the data set with HIV-1 RF (10% FCS), the inhibition at 1.25 µg/mL turned out to be 0%, the inhibition at 2.5 µg/mL is 0% and the inhibition at 5 µg/mL turned out to be 99%. In addition, in data set [1], the “Ames Test result” value is on record as “Negative”.

Regarding `COc1cc(N=Nc2c(O)ccc3ccc(S(=O)(=O)O)cc23)c(OC)cc1N=Nc1c(S(=O)(=O)O)cc2cc(S(=O)(=O)O)cc(NC(=O)c3cccc4ccccc34)c2c1O` [Compound 38], in the data set with HIV-1 RF (10% FCS), the inhibition at 1.25 µg/mL came to 99%, the inhibition at 2.5 µg/mL stood at 99% and the inhibition at 5 µg/mL was found to be 100%. Moreover, in data set [1], the “Ames Test result” value is on record as “Negative”.

Consider `COc1cc(N=Nc2c(O)ccc3ccc(S(=O)(=O)O)cc23)c(OC)cc1N=Nc1c(S(=O)(=O)O)cc2cc(S(=O)(=O)O)cc(NC(=O)c3cccc(C(F)(F)F)c3)c2c1O` [Compound 36], for which, in data set [1], the “Ames Test result” value is “Negative”.
